Data as given in the supplement of paper PMC13380429.

Columns and labels:
Conditions in all cases: 72 h
[1] = tested on: U2OS; experiment: cell viability relative to DMSO; higher = less toxic
[2] = tested on: HepG2; experiment: as above
[3] = tested on: Calu-3; experiment: as above
[4] = tested on: Vero E6; experiment: as above
[5] = tested on: Caco-2; experiment: as above
[6] = tested on: U2OS; experiment: relative viability EC50 (midpoint between 100% and the lowest measured viability); higher = less toxic
[7] = tested on: HepG2; experiment: as above
[8] = tested on: Calu-3; experiment: as above
[9] = tested on: Vero E6; experiment: as above
[10] = tested on: Caco-2; experiment: as above
[11] = tested on: U2OS; experiment: drug sensitivity score (DSS) for viability; higher = more toxic; extreme values may be limits of the assay
[12] = tested on: HepG2; experiment: as above
[13] = tested on: Calu-3; experiment: as above
[14] = tested on: Vero E6; experiment: as above
[15] = tested on: Caco-2; experiment: as above

Row | Structure (SMILES) | cell viability ([1]; 1 nM) [%] | cell viability ([1]; 10 nM) [%] | cell viability ([1]; 100 nM) [%] | cell viability ([1]; 1000 nM) [%] | cell viability ([1]; 10000 nM) [%] | cell viability ([2]; 1 nM) [%] | cell viability ([2]; 10 nM) [%] | cell viability ([2]; 100 nM) [%] | cell viability ([2]; 1000 nM) [%] | cell viability ([2]; 10000 nM) [%] | cell viability ([3]; 1 nM) [%] | cell viability ([3]; 10 nM) [%] | cell viability ([3]; 100 nM) [%] | cell viability ([3]; 1000 nM) [%] | cell viability ([3]; 10000 nM) [%] | cell viability ([4]; 1 nM) [%] | cell viability ([4]; 10 nM) [%] | cell viability ([4]; 100 nM) [%] | cell viability ([4]; 1000 nM) [%] | cell viability ([4]; 10000 nM) [%] | cell viability ([5]; 1 nM) [%] | cell viability ([5]; 10 nM) [%] | cell viability ([5]; 100 nM) [%] | cell viability ([5]; 1000 nM) [%] | cell viability ([5]; 10000 nM) [%] | relative viability EC50 [6] [µM] | relative viability EC50 [7] [µM] | relative viability EC50 [8] [µM] | relative viability EC50 [9] [µM] | relative viability EC50 [10] [µM] | drug sensitivity score [11] | drug sensitivity score [12] | drug sensitivity score [13] | drug sensitivity score [14] | drug sensitivity score [15]
1 | C[C@H]1N=C(N(C)C)N=C(N)N1 [imeglimin] | 99.7 | 105 | 96.9 | 102 | 103 | 96.4 | 96.7 | 97.7 | 99 | 100 | 97 | 114 | 96.9 | 104 | 104 | 92.5 | 96.2 | 92.8 | 101 | 105 | 86.3 | 88 | 96.2 | 97.3 | 97.6 | > 10 | > 10 | > 10 | > 10 | > 10 | 0 | 0 | 0 | 0 | 0
2 | COc1cc2c(cc1OC)CC(=O)N(CCCN(C)C[C@H]1Cc3cc(OC)c(OC)cc31)CC2 [ivabradine] | 106 | 102 | 99.6 | 99.1 | 101 | 109 | 113 | 98.2 | 102 | 89.3 | 111 | 85.1 | 98.4 | 101 | 105 | 101 | 99.7 | 100 | 107 | 99.4 | 98.3 | 85.6 | 102 | 100 | 99.8 | > 10 | > 10 | > 10 | > 10 | > 10 | 0 | 0 | 0 | 0 | 0
3 | Nc1ccn([C@@H]2CS[C@H](CO)O2)c(=O)n1 [lamivudine] | 96.9 | 102 | 97.7 | 102 | 97.1 | 93.9 | 93.4 | 98.8 | 99.1 | 106 | 107 | 89.6 | 89.4 | 96.9 | 97.6 | 102 | 105 | 97.4 | 85.8 | 99.2 | 83 | 100 | 89.3 | 88.7 | 84.5 | > 10 | > 10 | > 10 | > 10 | > 10 | 0 | 0 | 0 | 0 | 0.7
4 | O=C1N(c2ccccc2)c2ccccc2C1(Cc1ccncc1)Cc1ccncc1 [linopirdine] | 94.6 | 101 | 98.7 | 103 | 98.7 | 111 | 102 | 94.9 | 105 | 102 | 92.4 | 98.5 | 98.9 | 103 | 97.2 | 106 | 97.3 | 106 | 96.9 | 99.2 | 91.4 | 93.2 | 88.3 | 98.8 | 93.1 | > 10 | > 10 | > 10 | > 10 | > 10 | 0 | 0 | 0 | 0 | 0
5 | Cc1nccc2[nH]c(=O)ccc12 [medorinone] | 97.9 | 100 | 97.4 | 99.7 | 97.8 | 112 | 99.5 | 102 | 96.8 | 109 | 113 | 102 | 91 | 98.8 | 96.3 | 102 | 101 | 97 | 97.1 | 98.5 | 104 | 102 | 102 | 93.9 | 97.8 | > 10 | > 10 | > 10 | > 10 | > 10 | 0 | 0 | 0 | 0 | 0
6 | CC(=O)[C@H]1CC[C@H]2[C@@H]3C[C@H](C)C4=CC(=O)CC[C@]4(C)[C@H]3[C@@H](O)C[C@]12C [medrysone] | 97.6 | 97.4 | 99.8 | 101 | 99.6 | 102 | 98.4 | 108 | 101 | 112 | 91.5 | 98.5 | 101 | 91.3 | 93.4 | 98 | 95 | 97.9 | 95.6 | 100 | 90.4 | 97.5 | 98.2 | 101 | 102 | > 10 | > 10 | > 10 | > 10 | > 10 | 0 | 0 | 0 | 0 | 0
